Experimental data from patent US9163240B2, “SR-BI mutation as a predictor of low progesterone levels and poor fetal viability during pregnancy” (The Johns Hopkins University, priority 2009, dated 2015).

Columns and labels:
HGL5 cells = test: Progesterone secretion in HGL5 granulosa cells (RIA); assay type: cell-based, human; details: for rescue of impaired progesterone secretion in SR-BI KD cells: SR-BI KD cells incubated with the agent
female knockout mice = details: probucol added in the chow diet; cited from earlier work

| Compound | rescue of impaired progesterone secretion in SR-BI KD cells (HGL5 cells) | other results |
| --- | --- | --- |
| CC(C)CCC(O)[C@@H](C)[C@H]1CC[C@H]2[C@@H]3CC=C4C[C@@H](O)CC[C@]4(C)[C@H]3CC[C@]12C (stereo partly shown) [22-OH cholesterol, 22-hydroxycholesterol] | did not overcome this impairment | – |
| C=C[C@@]1(C)CC(=O)[C@]2(O)[C@@]3(C)[C@@H](O)CCC(C)(C)[C@@H]3[C@H](O)[C@H](OC(C)=O)[C@@]2(C)O1 [Fo, Forskolin] | – | progesterone secretion higher as compared with DMSO (HGL5 cells; scrambled cells, 24 h, Fo 10 μM, serum 10%, HDL or LDL 50 μg protein/ml, p<0.001): > 2 fold |
| CCCC(=O)Nc1ncnc2c1ncn2[C@@H]1O[C@@H]2COP(=O)(O)O[C@H]2[C@H]1OC(=O)CCC [dibutryl cAMP] | did not overcome the defect | – |
| CC(C)(Sc1cc(C(C)(C)C)c(O)c(C(C)(C)C)c1)Sc1cc(C(C)(C)C)c(O)c(C(C)(C)C)c1 [probucol] | – | fertility of SR-BI knockout female mice (female knockout mice): restored |
